Active and inactive are the calls of the source. How the calls were made is not given here.

The data set has as its system CCRIS mutagenicity, Ames/micronucleus/aberration tests. As to the kind of experiment: CCRIS mutagenicity studies. The following applies: Test System: AMES SALMONELLA TYPHIMURIUM
Where [1] appears, read: Strain/Indicator: TA98(1,8-DNP6), Metabolic Activation: NONE, Method: STANDARD PLATE.
Setting [2] is: Strain/Indicator: TA98, Metabolic Activation: NONE, Method: PREINCUBATION
[3] abbreviates: Strain/Indicator: TA98, Metabolic Activation: NONE, Method: STANDARD PLATE.
The mark [4] stands for this setting: Strain/Indicator: TA98, Metabolic Activation: RAT, LIVER, S-9, AROCLOR 1254, Method: STANDARD PLATE.
Where [5] appears, read: Strain/Indicator: TA100, Metabolic Activation: NONE, Method: PREINCUBATION
Setting [6] is: Strain/Indicator: TA1535, Metabolic Activation: NONE, Method: PREINCUBATION
The mark [7] stands for this setting: Strain/Indicator: TA1537, Metabolic Activation: NONE, Method: PREINCUBATION

Take `O=C1c2ccccc2-c2ccc([N+](=O)[O-])cc21`: the mutagenic call is “active; positive” (Strain/Indicator: TA98 (1,8-DNP6), Metabolic Activation: NONE, Method: PREINCUBATION); “active; positive” under setting [1]; “active; positive” (Strain/Indicator: TA98 (NR), Metabolic Activation: NONE, Method: PREINCUBATION); “active; positive” (Strain/Indicator: TA98(NR), Metabolic Activation: NONE, Method: STANDARD PLATE); “active; positive” (Strain/Indicator: TA98(NR), Metabolic Activation: RAT LIVER S-9 (10%), Method: PREINCUBATION); “active; positive” (Strain/Indicator: TA98(NR), Metabolic Activation: RAT LIVER S-9, 3-METHYLCHOLANTHRENE (10%), Method: PREINCUBATION). The mutagenic call is “active; positive” (Strain/Indicator: TA98(NR), Metabolic Activation: RAT LIVER S-9, BETA-NAPHTHAFLAVONE (10%), Method: PREINCUBATION); “active; positive” (Strain/Indicator: TA98(NR), Metabolic Activation: RAT LIVER S-9, PCB (10%), Method: PREINCUBATION); “active; positive” (Strain/Indicator: TA98(NR), Metabolic Activation: RAT LIVER S-9, PHENOBARBITAL (10%), Method: PREINCUBATION); “active; positive” under setting [2]; “active; positive” under setting [3]; “active; positive” under setting [4]. Besides, the mutagenic call runs as follows: (Strain/Indicator: TA100, Metabolic Activation: NONE, Method: STANDARD PLATE) “active; positive”; (Strain/Indicator: TA100, Metabolic Activation: RAT, LIVER, S-9, AROCLOR 1254, Method: STANDARD PLATE) “active; positive”; (Strain/Indicator: TA1538, Metabolic Activation: NONE) “active; positive”; (Strain/Indicator: TA7001, Metabolic Activation: NONE, Method: PREINCUBATION) “inactive; negative”; (Strain/Indicator: TA7002, Metabolic Activation: NONE, Method: PREINCUBATION) “active; positive”; (Strain/Indicator: TA7003, Metabolic Activation: NONE, Method: PREINCUBATION) “inactive; negative”. In addition, the mutagenic call by setting is: (Strain/Indicator: TA7004, Metabolic Activation: NONE, Method: PREINCUBATION) “active; positive”; (Strain/Indicator: TA7005, Metabolic Activation: NONE, Method: PREINCUBATION) “active; positive”; (Strain/Indicator: TA7006, Metabolic Activation: NONE, Method: PREINCUBATION) “active; positive”; (Strain/Indicator: YG7131, Metabolic Activation: NONE) “active; positive”.
Regarding `CN1C(=O)CC[C@H]1c1cccnc1`, the mutagenic call by setting is: under setting [2], “inactive; negative”; (Strain/Indicator: TA98, Metabolic Activation: RAT, LIVER, S-9, AROCLOR 1254 (5%), Method: PREINCUBATION) “inactive; negative”; under setting [5], “inactive; negative”; (Strain/Indicator: TA100, Metabolic Activation: RAT, LIVER, S-9, AROCLOR 1254 (5%), Method: PREINCUBATION) “inactive; negative”; under setting [6], “inactive; negative”; (Strain/Indicator: TA1535, Metabolic Activation: RAT, LIVER, S-9, AROCLOR 1254 (5%), Method: PREINCUBATION) “inactive; negative”. Also, the mutagenic call is, setting by setting: under setting [7], “inactive; negative”; (Strain/Indicator: TA1537, Metabolic Activation: RAT, LIVER, S-9, AROCLOR 1254 (5%), Method: PREINCUBATION) “inactive; negative”; (Strain/Indicator: TA1538, Metabolic Activation: NONE, Method: PREINCUBATION) “inactive; negative”; (Strain/Indicator: TA1538, Metabolic Activation: RAT, LIVER, S-9, AROCLOR 1254 (5%), Method: PREINCUBATION) “inactive; negative”.
In the case of `Cc1cc2ncccc2c2nc(N=[N+]=[N-])n(C)c12`, the mutagenic call was “active; positive” under setting [1] and “active; positive” under setting [3].
With `C=CC(=O)NC(C)(C)CC(C)=O`, the mutagenic call is “inactive; negative” (Strain/Indicator: TA98, Metabolic Activation: HAMSTER, LIVER, S-9, AROCLOR 1254, Method: PREINCUBATION); “inactive; negative” under setting [2]; “inactive; negative” (Strain/Indicator: TA98, Metabolic Activation: RAT, LIVER, S-9, AROCLOR 1254, Method: PREINCUBATION); “inactive; negative” (Strain/Indicator: TA100, Metabolic Activation: HAMSTER, LIVER, S-9, AROCLOR 1254, Method: PREINCUBATION); “inactive; negative” under setting [5]; “inactive; negative” (Strain/Indicator: TA100, Metabolic Activation: RAT, LIVER, S-9, AROCLOR 1254, Method: PREINCUBATION). Further, the mutagenic call reads like this: (Strain/Indicator: TA1535, Metabolic Activation: HAMSTER, LIVER, S-9, AROCLOR 1254, Method: PREINCUBATION) “inactive; negative”; under setting [6], “inactive; negative”; (Strain/Indicator: TA1535, Metabolic Activation: RAT, LIVER, S-9, AROCLOR 1254, Method: PREINCUBATION) “inactive; negative”; (Strain/Indicator: TA1537, Metabolic Activation: HAMSTER, LIVER, S-9, AROCLOR 1254, Method: PREINCUBATION) “inactive; negative”; under setting [7], “inactive; negative”; (Strain/Indicator: TA1537, Metabolic Activation: RAT, LIVER, S-9, AROCLOR 1254, Method: PREINCUBATION) “inactive; negative”.
In the case of `COc1cc(N=Nc2ccccc2)ccc1N`, the mutagenic call reads like this: (Strain/Indicator: TA98, Metabolic Activation: RAT LIVER, CYTOSOL, AROCLOR 1254, Method: PREINCUBATION) “inactive; negative”; (Strain/Indicator: TA98, Metabolic Activation: RAT LIVER, MICROSOMES, AROCLOR 1254, Method: PREINCUBATION) “active; positive”; (Strain/Indicator: TA98, Metabolic Activation: RAT, LIVER, MICROSOMES, 3-METHOXY-4-AMINOAZOBENZENE, Method: PREINCUBATION) “inactive; negative”; (Strain/Indicator: TA98, Metabolic Activation: RAT, LIVER, MICROSOMES, AROCLOR 1254, Method: PREINCUBATION) “active; positive”; (Strain/Indicator: TA98, Metabolic Activation: RAT, LIVER, MICROSOMES, Method: PREINCUBATION) “inactive; negative”; under setting [4], “active; positive”. Also, the mutagenic call was “active; positive” (Strain/Indicator: TA98, Metabolic Activation: RAT, LIVER, S-9, KC500 OR PHENOBARBITAL, Method: LIQUID SUSPENSION); “active; positive” (Strain/Indicator: TA100, Metabolic Activation: RAT, LIVER, S-9, KC500 OR PHENOBARBITAL, Method: LIQUID SUSPENSION); “active; positive” (Strain/Indicator: TA1538, Metabolic Activation: RAT, LIVER, S-9, AROCLOR 1254, Method: STANDARD PLATE).

Values taken from PubChem BioAssay AID1259407 (Chemical Carcinogenesis Research Information System (CCRIS), 2018).
